The values below come from PubChem BioAssay (NCI).

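Cultured in 96-well plates, cells were exposed to test compound for 48 hours across five concentrations. GI50 is the concentration that inhibits growth by half. TGI: total growth inhibition.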 Bounds are passed on as bounds.

Test systems include SW-620 colon; HL-60(TB) leukemia; UACC-257 melanoma; HS 578T breast; HCT-15 colon; SR leukemia; LOX IMVI melanoma; HT29 colon; T-47D breast.
Holding throughout (assay): NCI tumour cell line growth inhibition, 48 h

With `ClC(Cl)c1nc(-c2cccnc2)n2nc(-c3ccccc3)cc2n1`, the GI50 in the assay with SW-620 colon was 0.666 µM; in the assay with HL-60(TB) leukemia, 2.18 µM; in the assay on UACC-257 melanoma, 2.39 µM; with HS 578T breast it was 2.5 µM; in the assay on HCT-15 colon it was 0.472 µM; in the assay on SR leukemia, 0.348 µM. The TGI with SW-620 colon was 5.3 µM; with HL-60(TB) leukemia, 7.19 µM; in the assay on UACC-257 melanoma it was 6.08 µM; with HS 578T breast it was 6.05 µM; with HCT-15 colon it was 3.44 µM; with SR leukemia it was over 100 µM.
With `COc1cccc(C(=O)N2CCc3ccccc32)c1OC`, the TGI was over 100 µM with SW-620 colon; over 100 µM in the assay with LOX IMVI melanoma; 91.1 µM with HL-60(TB) leukemia; over 100 µM in the assay with UACC-257 melanoma; 61.9 µM in the assay with HCT-15 colon; over 100 µM in the assay on HT29 colon. Moreover, the TGI in the assay on SR leukemia was over 100 µM.
Consider `Cc1c(C(=O)c2ccccc2C(=O)O)c2ccccc2n1C`, for which the TGI with SW-620 colon, with HL-60(TB) leukemia, with UACC-257 melanoma, in the assay with HCT-15 colon and in the assay with HT29 colon was over 100 µM each time.
Turning to `COc1ccc(C(N)=O)cc1N=NN(C)C`, the TGI with SW-620 colon, in the assay on LOX IMVI melanoma, in the assay with HL-60(TB) leukemia, with UACC-257 melanoma, with HCT-15 colon and in the assay with HT29 colon was over 100 µM throughout. Further, the TGI with SR leukemia is over 100 µM.
For the compound `CC(=O)O[C@H]1CC[C@@]2(C)C(=CC[C@H]3C4=CC=C(C(C)=O)[C@@]4(C)CCC32)C1` (stereo partly specified), the TGI in the assay on SW-620 colon is 52.7 µM; with LOX IMVI melanoma it was 43.8 µM; in the assay on HL-60(TB) leukemia, over 100 µM; in the assay on UACC-257 melanoma it was 62.1 µM; in the assay with HCT-15 colon it was over 100 µM; in the assay with HT29 colon, over 100 µM. Moreover, the TGI in the assay with SR leukemia stood at 81 µM.
`COC1OC(CO)C(O)C(O)C1Br` (stereo unspecified): the TGI in the assay on SW-620 colon, in the assay on LOX IMVI melanoma, in the assay on HL-60(TB) leukemia, with UACC-257 melanoma, with HCT-15 colon and with HT29 colon was over 100 µM in each case. This compound yielded a TGI in the assay on SR leukemia of over 100 µM.
Turning to `COc1cc2noc(-c3ccccc3)c2cc1OC`, the TGI with SW-620 colon, with LOX IMVI melanoma, in the assay on HL-60(TB) leukemia, in the assay with UACC-257 melanoma, in the assay on HCT-15 colon and in the assay on HT29 colon was over 100 µM in each case. In addition, the TGI in the assay with SR leukemia was over 100 µM.
Consider `CC(=O)OCCOCNC(=S)N/N=C(\C)c1cnc2ccccc2n1`, for which the TGI in the assay with SW-620 colon was over 100 µM; in the assay on LOX IMVI melanoma, over 100 µM; in the assay with HL-60(TB) leukemia it was 80.8 µM; with UACC-257 melanoma, over 100 µM; with HCT-15 colon it was over 100 µM; with HT29 colon, over 100 µM. This compound also registered a TGI in the assay with SR leukemia of over 100 µM.
Regarding `COc1c(C(=O)O)oc2c(OC)cccc12`, the TGI in the assay on SW-620 colon, in the assay with LOX IMVI melanoma, with HL-60(TB) leukemia, with UACC-257 melanoma, in the assay with HCT-15 colon and with HT29 colon was over 100 µM throughout. Further, the TGI in the assay with SR leukemia was over 100 µM.
Regarding `Cn1c(=O)nc2n(-c3cccc(F)c3)c3ccccc3nc-2c1=O`, the TGI is 26.4 µM with SW-620 colon; 61.8 µM in the assay on LOX IMVI melanoma; 28.1 µM in the assay with UACC-257 melanoma; 52.3 µM with HCT-15 colon; 32.5 µM with HT29 colon.
On to `COc1cc(/C=C2\CC3C4CC=C5C[C@@H](OC(C)=O)CC[C@]5(C)C4CC[C@]3(C)C2=O)ccc1OCCCn1ccnc1` (stereo partly specified), for which the GI50 in the assay on SW-620 colon is 10.1 µM; in the assay with LOX IMVI melanoma, 8.63 µM; with HL-60(TB) leukemia, 11.2 µM; in the assay with UACC-257 melanoma, 10.4 µM; with HS 578T breast, 8.26 µM; in the assay with HCT-15 colon, 9.52 µM. For the same compound, the GI50 with HT29 colon was 16 µM; in the assay with T-47D breast, 19.8 µM. Moreover, the TGI in the assay on SW-620 colon came out at 23.3 µM; in the assay on LOX IMVI melanoma it was 15.5 µM; in the assay on HL-60(TB) leukemia it was 21.8 µM; with UACC-257 melanoma, 22.5 µM; with HS 578T breast, 21.3 µM; with HCT-15 colon it was 20.4 µM. Also, the TGI in the assay on HT29 colon and in the assay with T-47D breast was over 50 µM throughout.
Turning to `O=c1[nH]c(=O)n(C2OC(CO)C(O)C2O)c2c1CCCC2` (stereo unspecified), the TGI in the assay with SW-620 colon, in the assay with LOX IMVI melanoma, in the assay on HL-60(TB) leukemia, with UACC-257 melanoma, with HS 578T breast and with HCT-15 colon was over 100 µM in each case. In addition, the TGI with HT29 colon, in the assay on SR leukemia and with T-47D breast was over 100 µM in each case.
Turning to `CN(C)C(N)=NC#N`, the TGI with SW-620 colon was 38.2 µM; in the assay on HL-60(TB) leukemia, over 100 µM; with UACC-257 melanoma, over 100 µM; in the assay with HCT-15 colon, 34.8 µM; in the assay on HT29 colon, over 100 µM.
As for `COc1cccc(NC(=O)CC(=O)N2N=C(N(CCC#N)c3ccccc3C)CC2c2ccccc2)c1` (stereo unspecified), the TGI with SW-620 colon, in the assay on HL-60(TB) leukemia, in the assay on UACC-257 melanoma, with HCT-15 colon, in the assay with HT29 colon and in the assay on SR leukemia was over 100 µM each time.
In the case of `CC1(C)OC(=O)C=C([O-])O1.CC1(C)OC(=O)C=C([O-])O1.O=S(=O)([O-])c1ccc([O-])c2ncccc12.O=S(=O)([O-])c1ccc([O-])c2ncccc12.[Ti+4]`, the GI50 in the assay with SW-620 colon is over 100 µM; in the assay on LOX IMVI melanoma, 46.7 µM; in the assay on HL-60(TB) leukemia, 34.1 µM; in the assay on UACC-257 melanoma, over 100 µM; in the assay with HCT-15 colon, 99.7 µM; in the assay on HT29 colon, over 100 µM. For the same compound, the TGI with SW-620 colon, in the assay on LOX IMVI melanoma, in the assay on HL-60(TB) leukemia, with UACC-257 melanoma, with HCT-15 colon and in the assay on HT29 colon was over 100 µM each time.
For the compound `C(CCC[Te][Te]CCCCCCOC1CCCCO1)CCOC1CCCCO1` (stereo unspecified), the TGI was 45.2 µM in the assay on SW-620 colon; 35.1 µM in the assay on LOX IMVI melanoma; 37.9 µM with HL-60(TB) leukemia; 20.7 µM with UACC-257 melanoma; 60.6 µM in the assay on HCT-15 colon; 25.6 µM in the assay on HT29 colon. In the assay on SR leukemia, this compound registered a TGI of 38.2 µM.
